We go through one molecule from patent publication US20050143356A1, “Selective inhibition of cyclooxygenase 1 in the treatment of diabetic nephropathy” (Vanderbilt University, priority 2003, published 2005).

Data set [1] has as its system C57BLKS db/db mice. Description: Body weight gain, blood sugar and glycosylated hemoglobin in diabetic db/db mice. The settings on record: diabetic db/db mice vs. vehicle treated controls, 6 months. The source says:
(§1) The C57BLKS db/db mice is a rodent model of type II diabetes mellitus. A LepR^db (db) mutation on chromosome 4 (G→T point mutation) has been identified in the leptin receptor gene. This mutation generates a new donor splice site, leading to prematurely termination of the intracellular domain of leptin receptor and lack of leptin signal transduction. C57BLKS db/db strain is more susceptible to the development of diabetic nephropathy than the C57BL/6J db/db strain. Animals are characterized by obesity, insulin resistance, diabetes and diabetic nephropathy (DN). […] Pathologic changes include mesangial matrix expansion (>50% increase in the majority of glomeruli) and GBM thickening >25%, absence of GBM electron dense material by EM, arteriolar hyalinosis (any degree) and tubulo-interstitial fibrosis.
Inhibitor was given for 6 months, while the control diabetic mice were given vehicle alone (n=8 per group). Blood samples were drawn for analysis of glucose and glycosylated hemoglobin (HbA1c) monthly. The urine samples were collected monthly and albumin/creatinine ratio was determined by enzyme linked immunosorbent assays (Exocell Inc, PA, USA). Glomerular filtration rate (GFR) was determined using FITC-inulin clearance based on plasma elimination rate following single bolus intravenous injection.
(§2) Cyclooxygenase-1 (COX-1) is also abundantly expressed in the kidney, however its role in health and disease remains poorly defined. […] Diabetic mice were provide the COX-1 inhibitor for 6 months, while control diabetic mice given vehicle alone. […] Glomerular filtration rate was also determined using FITC-inulin clearance.

Data set [2] relates to C57BLKS db/db mice. Description: Kidney histopathology (mesangial expansion) in diabetic db/db mice. It counts as in vivo, mouse. The settings on record: treated vs. untreated (severe mesangial expansion in untreated).
Text: as §1, §2

For the molecule `COc1ccc(-n2nc(C(F)(F)F)cc2-c2ccc(Cl)cc2)cc1` [SC8560], in the data set with C57BLKS db/db mice [1], the “effect on Hb1C” value was “did not affect”, the “effect on blood sugar” value is listed as “did not affect” and the “effect on body weight gain” value was “did not affect”. The “mesangial expansion (histopathology)” value in the data set with C57BLKS db/db mice [2] is “less pronounced”.
